The values that follow come from ChEMBL document CHEMBL5442219.

One may read the inhibition as the relative decrease from the control value, in per cent.

What all share (settings): Compound concentration 10 µM
Test [1] addresses 5-hydroxytryptamine receptor 6 (Homo sapiens) (UniProt P50406).
Description: PDSP Primary Binding target: HTR6 - Compounds are tested at 10 uM concentration, plate are incubated at room temperature in the dark for 90 minutes. Reaction are stopped by vacuum filtration onto 0.3% polyethyleneimine soaked filter mats using Filtermate harvester. Scintilation cocktail is then melted onto microwave-dried filters on a hot plate and the radio activity is counted in Microbia counter.
Test [2] deals with T1, 5-hydroxytryptamine receptor 3A (Homo sapiens) (UniProt P46098).
T1 sequence (whole entry): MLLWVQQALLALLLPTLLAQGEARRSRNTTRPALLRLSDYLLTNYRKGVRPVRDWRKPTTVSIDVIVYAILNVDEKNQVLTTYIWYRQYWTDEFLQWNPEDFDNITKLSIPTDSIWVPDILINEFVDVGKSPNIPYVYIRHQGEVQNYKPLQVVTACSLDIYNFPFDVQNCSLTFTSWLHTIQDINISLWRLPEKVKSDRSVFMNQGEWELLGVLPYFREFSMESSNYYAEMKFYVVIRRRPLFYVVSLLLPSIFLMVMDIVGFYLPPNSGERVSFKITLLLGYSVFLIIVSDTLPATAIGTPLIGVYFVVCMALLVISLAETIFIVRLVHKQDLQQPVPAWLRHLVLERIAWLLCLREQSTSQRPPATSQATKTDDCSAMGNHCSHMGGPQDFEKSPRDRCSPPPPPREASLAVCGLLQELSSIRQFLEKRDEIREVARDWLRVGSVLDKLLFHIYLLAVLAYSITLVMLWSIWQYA
Description: PDSP Primary Binding target: HTR3A - Compounds are tested at 10 uM concentration, plate are incubated at room temperature in the dark for 90 minutes. Reaction are stopped by vacuum filtration onto 0.3% polyethyleneimine soaked filter mats using Filtermate harvester. Scintilation cocktail is then melted onto microwave-dried filters on a hot plate and the radio activity is counted in Microbia counter.

Test [3] addresses T2, Alpha-2A adrenergic receptor (Homo sapiens) (UniProt P08913).
T2 sequence (whole entry): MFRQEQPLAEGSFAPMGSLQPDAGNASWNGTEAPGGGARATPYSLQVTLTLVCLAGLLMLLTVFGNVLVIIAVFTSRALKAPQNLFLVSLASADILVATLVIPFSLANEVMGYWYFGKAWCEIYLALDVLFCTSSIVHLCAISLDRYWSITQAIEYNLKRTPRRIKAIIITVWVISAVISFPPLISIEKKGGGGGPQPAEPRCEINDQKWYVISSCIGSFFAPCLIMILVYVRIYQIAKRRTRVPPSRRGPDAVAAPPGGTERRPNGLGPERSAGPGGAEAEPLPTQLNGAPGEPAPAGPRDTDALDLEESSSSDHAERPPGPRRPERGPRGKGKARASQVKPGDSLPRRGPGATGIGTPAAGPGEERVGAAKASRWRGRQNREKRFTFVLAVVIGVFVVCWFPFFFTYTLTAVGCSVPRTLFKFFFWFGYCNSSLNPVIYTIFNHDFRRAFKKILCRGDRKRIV
Description: PDSP Primary Binding target: ADRA2A - Compounds are tested at 10 uM concentration, plate are incubated at room temperature in the dark for 90 minutes. Reaction are stopped by vacuum filtration onto 0.3% polyethyleneimine soaked filter mats using Filtermate harvester. Scintilation cocktail is then melted onto microwave-dried filters on a hot plate and the radio activity is counted in Microbia counter.

The target of test [4] is 5-hydroxytryptamine receptor 1E (Homo sapiens) (UniProt P28566).
Description: PDSP Primary Binding target: HTR1E - Compounds are tested at 10 uM concentration, plate are incubated at room temperature in the dark for 90 minutes. Reaction are stopped by vacuum filtration onto 0.3% polyethyleneimine soaked filter mats using Filtermate harvester. Scintilation cocktail is then melted onto microwave-dried filters on a hot plate and the radio activity is counted in Microbia counter.
The target in test [5] is T3, 5-hydroxytryptamine receptor 2C (Homo sapiens) (UniProt P28335).
T3 sequence (whole entry): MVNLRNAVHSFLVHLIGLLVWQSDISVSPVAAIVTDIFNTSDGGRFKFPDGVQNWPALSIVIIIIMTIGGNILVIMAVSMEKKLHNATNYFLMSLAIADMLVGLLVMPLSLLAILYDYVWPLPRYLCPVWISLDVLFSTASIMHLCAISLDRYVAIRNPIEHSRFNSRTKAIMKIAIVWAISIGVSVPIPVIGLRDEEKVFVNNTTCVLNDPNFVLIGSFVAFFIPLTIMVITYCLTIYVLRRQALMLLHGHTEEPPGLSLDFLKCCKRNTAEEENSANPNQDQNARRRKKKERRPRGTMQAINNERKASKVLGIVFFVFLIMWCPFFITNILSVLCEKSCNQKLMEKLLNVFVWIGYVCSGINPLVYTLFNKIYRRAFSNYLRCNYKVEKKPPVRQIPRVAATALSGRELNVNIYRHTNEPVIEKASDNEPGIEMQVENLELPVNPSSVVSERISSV
Description: PDSP Primary Binding target: HTR2C - Compounds are tested at 10 uM concentration, plate are incubated at room temperature in the dark for 90 minutes. Reaction are stopped by vacuum filtration onto 0.3% polyethyleneimine soaked filter mats using Filtermate harvester. Scintilation cocktail is then melted onto microwave-dried filters on a hot plate and the radio activity is counted in Microbia counter.

The target of test [6] is Sodium-dependent noradrenaline transporter (Homo sapiens) (UniProt P23975).
Description: PDSP Primary Binding target: SLC6A2 - Compounds are tested at 10 uM concentration, plate are incubated at room temperature in the dark for 90 minutes. Reaction are stopped by vacuum filtration onto 0.3% polyethyleneimine soaked filter mats using Filtermate harvester. Scintilation cocktail is then melted onto microwave-dried filters on a hot plate and the radio activity is counted in Microbia counter.
Test [7] has as its target 5-hydroxytryptamine receptor 7 (Homo sapiens) (UniProt P34969).
Description: PDSP Primary Binding target: HTR7 - Compounds are tested at 10 uM concentration, plate are incubated at room temperature in the dark for 90 minutes. Reaction are stopped by vacuum filtration onto 0.3% polyethyleneimine soaked filter mats using Filtermate harvester. Scintilation cocktail is then melted onto microwave-dried filters on a hot plate and the radio activity is counted in Microbia counter.
Test [8] deals with T4, Alpha-1A adrenergic receptor (Homo sapiens) (UniProt P35348).
T4 sequence (whole entry): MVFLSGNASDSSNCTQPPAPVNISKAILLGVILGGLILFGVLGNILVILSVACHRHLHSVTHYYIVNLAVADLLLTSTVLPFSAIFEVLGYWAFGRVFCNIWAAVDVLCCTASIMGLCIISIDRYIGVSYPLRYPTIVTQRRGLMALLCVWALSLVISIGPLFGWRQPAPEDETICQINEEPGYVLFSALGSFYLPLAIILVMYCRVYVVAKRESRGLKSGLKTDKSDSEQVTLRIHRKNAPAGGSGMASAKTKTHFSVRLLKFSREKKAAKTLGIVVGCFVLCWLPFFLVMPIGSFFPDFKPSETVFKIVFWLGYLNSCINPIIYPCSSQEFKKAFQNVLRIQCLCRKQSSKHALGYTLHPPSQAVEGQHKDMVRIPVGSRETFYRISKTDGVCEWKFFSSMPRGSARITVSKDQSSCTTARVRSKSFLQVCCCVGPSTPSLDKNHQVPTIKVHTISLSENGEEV
Description: PDSP Primary Binding target: ADRA1A - Compounds are tested at 10 uM concentration, plate are incubated at room temperature in the dark for 90 minutes. Reaction are stopped by vacuum filtration onto 0.3% polyethyleneimine soaked filter mats using Filtermate harvester. Scintilation cocktail is then melted onto microwave-dried filters on a hot plate and the radio activity is counted in Microbia counter.

Test [9] concerns the target Sigma intracellular receptor 2 (Homo sapiens) (UniProt Q5BJF2).
Description: PDSP Primary Binding target: TMEM97 - Compounds are tested at 10 uM concentration, plate are incubated at room temperature in the dark for 90 minutes. Reaction are stopped by vacuum filtration onto 0.3% polyethyleneimine soaked filter mats using Filtermate harvester. Scintilation cocktail is then melted onto microwave-dried filters on a hot plate and the radio activity is counted in Microbia counter.
Test [10] has as its target T5, Muscarinic acetylcholine receptor M5 (Homo sapiens) (UniProt P08912).
T5 sequence (whole entry): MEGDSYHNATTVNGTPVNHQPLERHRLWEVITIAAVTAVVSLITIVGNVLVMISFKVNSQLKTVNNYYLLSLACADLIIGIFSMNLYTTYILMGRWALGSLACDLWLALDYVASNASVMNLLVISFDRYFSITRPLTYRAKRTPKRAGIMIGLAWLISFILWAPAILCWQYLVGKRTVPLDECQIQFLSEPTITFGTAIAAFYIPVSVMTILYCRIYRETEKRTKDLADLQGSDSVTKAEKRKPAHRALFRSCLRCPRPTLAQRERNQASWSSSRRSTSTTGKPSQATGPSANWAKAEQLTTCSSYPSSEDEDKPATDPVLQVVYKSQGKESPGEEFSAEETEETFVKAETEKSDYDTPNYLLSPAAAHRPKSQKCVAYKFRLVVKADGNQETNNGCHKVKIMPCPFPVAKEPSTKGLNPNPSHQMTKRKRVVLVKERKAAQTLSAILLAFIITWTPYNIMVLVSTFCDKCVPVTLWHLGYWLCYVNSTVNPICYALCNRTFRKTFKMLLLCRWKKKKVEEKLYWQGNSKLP
Description: PDSP Primary Binding target: CHRM5 - Compounds are tested at 10 uM concentration, plate are incubated at room temperature in the dark for 90 minutes. Reaction are stopped by vacuum filtration onto 0.3% polyethyleneimine soaked filter mats using Filtermate harvester. Scintilation cocktail is then melted onto microwave-dried filters on a hot plate and the radio activity is counted in Microbia counter.

The target in test [11] is Sodium-dependent serotonin transporter (Homo sapiens) (UniProt P31645).
Sequence of Sodium-dependent serotonin transporter (Homo sapiens) (P31645 whole entry, looked up): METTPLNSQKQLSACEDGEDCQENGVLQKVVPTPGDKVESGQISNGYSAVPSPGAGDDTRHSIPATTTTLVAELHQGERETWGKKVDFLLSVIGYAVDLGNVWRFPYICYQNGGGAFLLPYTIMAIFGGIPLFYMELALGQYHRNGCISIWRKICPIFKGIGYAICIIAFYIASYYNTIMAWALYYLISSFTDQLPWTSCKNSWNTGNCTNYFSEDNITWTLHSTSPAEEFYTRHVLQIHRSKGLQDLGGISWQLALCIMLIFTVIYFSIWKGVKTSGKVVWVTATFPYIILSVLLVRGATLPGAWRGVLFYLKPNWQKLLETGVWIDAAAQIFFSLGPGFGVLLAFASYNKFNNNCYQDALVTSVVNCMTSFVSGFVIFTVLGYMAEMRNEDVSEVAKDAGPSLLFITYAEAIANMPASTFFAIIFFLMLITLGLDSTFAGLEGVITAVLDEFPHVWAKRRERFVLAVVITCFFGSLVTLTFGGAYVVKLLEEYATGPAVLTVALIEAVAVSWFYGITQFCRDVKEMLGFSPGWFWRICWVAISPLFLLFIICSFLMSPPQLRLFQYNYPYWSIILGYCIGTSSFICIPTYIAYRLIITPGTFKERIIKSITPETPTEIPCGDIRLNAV
Description: PDSP Primary Binding target: SLC6A4 - Compounds are tested at 10 uM concentration, plate are incubated at room temperature in the dark for 90 minutes. Reaction are stopped by vacuum filtration onto 0.3% polyethyleneimine soaked filter mats using Filtermate harvester. Scintilation cocktail is then melted onto microwave-dried filters on a hot plate and the radio activity is counted in Microbia counter.

Sequence of Sodium-dependent noradrenaline transporter (Homo sapiens) (P23975 whole entry): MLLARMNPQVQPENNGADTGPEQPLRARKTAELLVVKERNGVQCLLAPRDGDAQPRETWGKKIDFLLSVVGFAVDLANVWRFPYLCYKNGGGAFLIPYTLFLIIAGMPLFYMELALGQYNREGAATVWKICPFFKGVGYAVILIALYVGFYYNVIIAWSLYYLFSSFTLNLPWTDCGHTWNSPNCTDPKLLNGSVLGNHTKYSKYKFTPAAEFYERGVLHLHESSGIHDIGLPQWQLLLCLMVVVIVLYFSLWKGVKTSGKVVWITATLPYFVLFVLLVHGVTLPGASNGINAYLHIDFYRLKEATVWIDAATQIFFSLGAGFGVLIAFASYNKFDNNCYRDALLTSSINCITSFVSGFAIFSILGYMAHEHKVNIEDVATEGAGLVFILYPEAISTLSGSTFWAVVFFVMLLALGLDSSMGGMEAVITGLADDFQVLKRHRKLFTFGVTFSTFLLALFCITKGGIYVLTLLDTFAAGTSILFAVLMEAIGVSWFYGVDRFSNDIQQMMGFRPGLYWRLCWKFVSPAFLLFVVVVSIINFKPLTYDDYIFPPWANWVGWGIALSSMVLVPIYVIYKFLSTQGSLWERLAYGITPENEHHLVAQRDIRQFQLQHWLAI
Sequence of 5-hydroxytryptamine receptor 6 (Homo sapiens) (P50406 whole entry): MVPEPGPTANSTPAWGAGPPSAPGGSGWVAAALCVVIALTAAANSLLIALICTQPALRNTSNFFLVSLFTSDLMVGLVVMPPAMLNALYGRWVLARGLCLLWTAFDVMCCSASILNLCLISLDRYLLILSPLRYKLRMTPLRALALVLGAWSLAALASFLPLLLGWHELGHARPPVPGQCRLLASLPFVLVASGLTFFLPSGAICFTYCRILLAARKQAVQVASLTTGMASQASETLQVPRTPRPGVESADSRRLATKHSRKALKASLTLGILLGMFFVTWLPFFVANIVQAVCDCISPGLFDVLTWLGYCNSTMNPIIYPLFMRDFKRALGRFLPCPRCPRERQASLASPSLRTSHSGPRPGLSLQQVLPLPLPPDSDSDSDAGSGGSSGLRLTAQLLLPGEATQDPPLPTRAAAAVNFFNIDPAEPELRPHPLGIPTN
Sequence of 5-hydroxytryptamine receptor 1E (Homo sapiens) (P28566 whole entry): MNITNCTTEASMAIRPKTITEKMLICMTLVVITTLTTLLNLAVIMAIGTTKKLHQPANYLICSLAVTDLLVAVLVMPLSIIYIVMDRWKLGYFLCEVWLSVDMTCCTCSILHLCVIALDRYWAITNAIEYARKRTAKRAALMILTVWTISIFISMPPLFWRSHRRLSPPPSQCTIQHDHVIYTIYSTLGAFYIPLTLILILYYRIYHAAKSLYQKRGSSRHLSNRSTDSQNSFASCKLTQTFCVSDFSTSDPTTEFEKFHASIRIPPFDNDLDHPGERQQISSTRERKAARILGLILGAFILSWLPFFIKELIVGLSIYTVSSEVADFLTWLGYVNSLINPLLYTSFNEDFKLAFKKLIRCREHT
Sequence of 5-hydroxytryptamine receptor 7 (Homo sapiens) (P34969 whole entry): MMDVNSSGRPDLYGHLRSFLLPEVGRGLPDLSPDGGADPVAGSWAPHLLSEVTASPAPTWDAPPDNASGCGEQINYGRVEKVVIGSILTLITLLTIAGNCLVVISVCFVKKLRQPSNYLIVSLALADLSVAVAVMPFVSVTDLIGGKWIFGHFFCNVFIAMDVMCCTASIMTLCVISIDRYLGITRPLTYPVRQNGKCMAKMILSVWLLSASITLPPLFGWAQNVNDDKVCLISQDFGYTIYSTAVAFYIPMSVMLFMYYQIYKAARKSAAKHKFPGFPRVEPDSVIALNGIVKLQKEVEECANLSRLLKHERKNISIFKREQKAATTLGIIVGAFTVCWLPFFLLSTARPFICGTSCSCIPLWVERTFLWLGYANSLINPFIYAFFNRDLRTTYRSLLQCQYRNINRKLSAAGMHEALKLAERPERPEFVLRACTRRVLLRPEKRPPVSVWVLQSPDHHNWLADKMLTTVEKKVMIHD
Sequence of Sigma intracellular receptor 2 (Homo sapiens) (Q5BJF2 whole entry): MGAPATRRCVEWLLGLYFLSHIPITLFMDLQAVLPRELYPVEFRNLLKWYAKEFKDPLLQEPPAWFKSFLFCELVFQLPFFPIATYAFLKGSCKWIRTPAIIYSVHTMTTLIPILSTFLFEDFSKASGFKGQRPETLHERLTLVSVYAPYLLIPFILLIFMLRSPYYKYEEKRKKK

`Cc1cccc(NC(=O)N[C@@H]2N=C(c3ccccc3)c3ccccc3N(C)C2=O)c1`: the inhibition in test [1] was 6.3%; in test [2], -5.37%; in test [3], 13.9%; in test [4] it was 18.6%; in test [5], -0.72%; in test [6], 1.83%. The results for the inhibition in [7], in test [8] and in test [9] were 3.26%, -7.27% and 15.4%, respectively.

Take `N#Cc1c(N)nc(SCC(N)=O)c(C#N)c1-c1ccc(OCC2CC2)cc1`: the inhibition in test [1] was 3.97%; in [3], -1.71%; in test [10], 10.4%; in test [8], 16.2%.

`O=C(Nc1ccc(Cl)cc1)Nc1cccc(-c2cccc(N3CCCC3)n2)c1`: the inhibition was -5.81% in test [2]; 3.23% in [3]; 2.89% in test [4]; -5.29% in [10]; 1.27% in [8]; 6.97% in [9].

For the compound `CC(C)(C)NC[C@H](O)COc1nsnc1N1CCOCC1`, the inhibition in [3] is 11.8%; in test [4] it was 7.32%; in test [5], -1.62%; in [10], 2.12%; in test [8], 2.77%; in test [9] it was 10.5%.

`CC(C)NCC(O)COc1ccc(CCOCC2CC2)cc1` (stereo unspecified): the inhibition is -5.1% in test [1]; -0.24% in [2]; 20.5% in [3]; 5.21% in test [4]; 0.46% in test [10]; 45.1% in [6]. Besides, the figures for the inhibition in [8], in [9] and in test [11] were -7.39%, 76.2% and -2.29%, respectively.

Take `CCCn1c(=O)c2[nH]c(-c3cnn(Cc4cccc(C(F)(F)F)c4)c3)nc2n(CC)c1=O`: the inhibition is -4.02% in test [2]; 10.9% in test [3]; -4% in [4]; -2.1% in test [10]; 25.1% in [6]; -4.72% in [8]. In test [9], the inhibition was 18%.

For the compound `CCCCc1nc(Cl)c(CO)n1Cc1ccc(-c2ccccc2-c2nnn[nH]2)cc1`, the inhibition in test [1] is 17.6%; in test [2] it was -6.45%; in test [3], 6.2%; in test [4] it was 7.06%; in test [5] it was 55%; in test [10], 0.95%. The inhibition was 11.8% in test [6], 40% in test [7], -0.59% in test [8] and 27.4% in test [9].

As for `COc1ccc(C2(O)OC(=O)C(c3ccc4c(c3)OCO4)=C2Cc2cc(OC)c(OC)c(OC)c2)cc1` (stereo unspecified), the inhibition in test [1] is -2.9%; in [3] it was 4.57%; in test [4], -4.29%; in test [10], 28.8%; in [7], 12%; in [8] it was 3.1%.

For `CC(C)NCC(O)COc1cccc2ccccc12` (stereo unspecified), the inhibition in [1] was 74.2%; in test [2], 8.73%; in [3], 16.4%; in test [4], 3.24%; in [5] it was 68%; in test [10], 6.07%. The inhibition in test [6] is 46.2%; in test [7] it was 13.3%; in [8] it was 14.6%; in [9] it was 90%.

Consider `CN(C)C(=O)C(CCN1CCC(O)(c2ccc(Cl)cc2)CC1)(c1ccccc1)c1ccccc1`, for which the inhibition in [1] was 14.9%; in test [3], 47.1%; in test [4], 18.4%; in [5] it was 0.09%; in test [10] it was 2.95%; in [6], 25.8%. The inhibition in test [7] was 20.8%; in test [8], 42.9%; in [9], 95.5%.

In the case of `CCN(CC)CCCCC1CCN(CC(=O)N2c3ccccc3C(=O)Nc3cccnc32)CC1`, the inhibition in test [1] was -7.42%; in test [2], 3.5%; in test [3], 12.9%; in test [10], 72.4%; in test [6] it was 15.3%; in test [8] it was -8.07%. Besides, the inhibition in test [9] is 82.1%.

Turning to `N=C(N)SCCc1c[nH]cn1`, the inhibition is -1.7% in [1]; 45.7% in test [2]; 51.5% in test [3]; 26.2% in test [4]; -2.06% in test [5]; 11.5% in test [6]. Moreover, the inhibition is 19.2% in test [7], -6.16% in test [8] and 13.8% in test [9].

Regarding `C=CCN1C[C@H](C)N([C@H](c2ccc(C(=O)N(CC)CC)cc2)c2cccc(O)c2)C[C@H]1C`, the inhibition in test [1] was 5.03%; in [2], 10%; in test [3], 17.8%; in test [4] it was 19.5%; in test [5] it was 0.93%; in test [6] it was 13%. Further, the inhibition in [8] is 16.8%; in [9] it was 46.7%; in [11], 13.7%.

Take `Oc1ccc2c3c1O[C@H]1c4[nH]c5c(c4C[C@@]4(O)[C@@H](C2)N(CC2CC2)CC[C@]314)C[C@@]1(O)[C@H]2Cc3ccc(O)c4c3[C@@]1(CCN2CC1CC1)[C@H]5O4`: the inhibition in test [1] is 11.4%; in [2], 6.54%; in [3], 6.23%; in test [5], 10.5%; in test [10], -0.25%; in test [6] it was 12.7%. Further, the figures for the inhibition in [8], in test [9] and in test [11] were 30.1%, 30.2% and -6.45%, respectively.

Consider `COc1cc2c(CCNC(C)=O)c[nH]c2cc1Cl`, for which the inhibition was 13.4% in test [3]; 16.3% in [4]; 18.8% in [5]; -0.31% in test [7]; 1.85% in [8]; -5.25% in test [9].
